BindingDB's records for doi:10.1021/jm00001a010 (University of Massachusetts Medical School, 1995)

Molecular target: Thymidine kinase (Herpes simplex virus type 1)
Experiment: Binding affinity towards HSV-1 thymidine kinase was determined

- Ki: 2.06 µM
SMILES: Nc1nc2c(ncn2CCCCO)c(=O)[nH]1 [2-amino-9-(4-hydroxybutyl)-6,9-dihydro-3H-purin-6-one]
